In patent publication US20200071310A1, “N-ARYL PYRAZOLES AS NRF2 REGULATORS” (GLAXOSMITHKLINE INTELLECTUAL PROPERTY DEVELOPMENT LIMITED, priority 2016, published 2020):
pEC50: −log10 of the molar value.

How the values were obtained:
[1] = system: NQO1 specific enzyme activity in BEAS-2B cells; experiment: BEAS-2B NQO1 MTT Assay; type: cell-based; settings: Homo sapiens; NQO1 specific activity induction, BEAS-2B cells, 48 hours; read-out: EC50
Procedure, shortened: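 BEAS-2B cells plated overnight, treated with compound for 48 h at 37° C, then lysed; NQO1 activity measured kinetically by MTT cocktail at 570 nm over 30 min, with lysate aliquot for Cell Titer Glo. pEC50 from 3-parameter fit of ΔOD/min versus log concentration.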

[2] = biological target: T1, Keap1 (321-609) Kelch domain / TAMRA-labeled NRF2 peptide (ETGE motif) (Homo sapiens, UniProt Q14145); experiment: NRF2-Keap1 FP Assay; type: binding; settings: Keap1 (321-609) 20 nM, Tamra labeled peptide 8 nM
T1 construct: the Kelch domain (321-609) of Keap1 is used
T1 sequence (Q14145 321-609): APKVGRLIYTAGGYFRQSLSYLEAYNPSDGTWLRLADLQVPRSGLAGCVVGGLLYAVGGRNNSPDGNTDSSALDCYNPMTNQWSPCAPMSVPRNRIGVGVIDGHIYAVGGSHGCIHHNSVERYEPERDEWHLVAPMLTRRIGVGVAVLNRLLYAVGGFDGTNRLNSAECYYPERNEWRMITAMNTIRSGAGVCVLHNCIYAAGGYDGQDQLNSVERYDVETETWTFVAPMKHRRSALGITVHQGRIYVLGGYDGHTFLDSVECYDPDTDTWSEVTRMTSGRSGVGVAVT
Excerpt: One model for the NRF2-Keap1 interaction is through two binding sites in the Neh2 domain on NRF2. The two sites are referred to as the DLG binding motif (latch domain, uM affinity) and the ETGE binding motif (hinge domain, nM affinity). The Keap1 protein consists of an N-terminal region (NTR), a broad complex, tramtrack, and brick a' brac domain (BTB), an intervening region (IVR), a double glycine repeat domain (DGR or Kelch), and a C-terminal region. The DLG and ETGE motifs of NRF2's Neh2 domain bind to the Kelch domain of Keap1 at different affinities. In the Keap1 Kelch fluorescence polarization (FP) assay, a TAMRA-labeled 16mer peptide (AFFAQLQLDEETGEFL) containing the ETGE motif of NRF2 and the Kelch domain (321-609) of Keap1 is used. The assay determines if a compound interferes with the binding between Keap1 […] and the TAMRA-labeled peptide. Binding of TAMRA-labeled NRF2 peptide to Keap1 (321-609) results in a high FP signal. If a compound interferes with the binding between the peptide and the protein, it will cause the assay signal to decrease. Thus, assay signal is inversely proportional to binding inhibition.
100 nl of 100× compound dose response curves (serial 3-fold dilutions) in DMSO were stamped using an Echo liquid handling system (Labcyte) into 384-well low volume black assay plates (Greiner, #784076), with DMSO in columns 6 and 18. The top concentration of compound was located in columns 1 and 13. Keap1 (321-609) was diluted to 40 nM (2×) in 1× assay buffer (50 mM Tris, pH 8.0, 100 mM NaCl, 5 mM MgCl2, 1 mM DTT, 2 mM CHAPS, and 0.005% BSA) and 5 ul was added using a Multidrop Combi (Thermo Electron Corporation) equipped with a metal tip dispenser to all wells of the compound plate, except column 18. Column 18 received only 5 ul of assay buffer. Immediately, 5 uL of 16 nM (2×) of Tamra labeled peptide (AFFAQLQLDEETGEFL, 21st Century Biochemicals) was added to all wells of the plate. The plates were spun at 500 rpm for 1 min, incubated for 1 hr at room temperature, and read on an Analyst GT (Molecular Devices) equipped with excitation (530/25 nm) and emission (580/10 nm) filters designed for Tamra probes. A 561 nm dichroic mirror was also used in the Analyst. The final assay concentrations of Keap1l (321-609) and Tamra labeled peptide were 20 nM and 8 nM, respectively. Fluorescence measurements, represented as mP, were used in the transformation of the data. Compound activity was calculated based on percent inhibition, normalized against controls in the assay (Control 1 contains the Tamra peptide and Keap1 (321-609) together (0% response) and control 2 contains the Tamra peptide alone (100% response)). Data analysis was handled using the software package Abase XE (Surrey, United Kingdom. The % inhibition values were calculated by the equation:
100−(100*((compound response−average control 2)/(average control 1−average control2))).
For calculation of pIC50s, Abase XE used a four parameter equation.
IC50s<1 nM (+++++), IC50s 1 nM-10 nM (++++), IC50s 10-100 nM (+++), IC50s 100 nM-1 μM (++), IC50s 1-10 μM (+), IC50s>10 μM (−), or were not determined (ND).

Row | Compound | pEC50 [1] | pEC50 [2]
1 | CN(Cc1cccc(-n2ncc(C(=O)O)c2[C@@H]2C[C@H]2c2cn(C)nn2)c1)S(=O)(=O)c1ccccc1Oc1ccccc1 (relative stereo) [Example 38, 5-((trans)-2-(1-methyl-1H-1,2,3-triazol-4-yl)cyclo-propyl)-1-(3-((N-methyl-2-phenoxyphenyl-sulfonamido)-methyl)phenyl)-1H-pyrazole-4-carboxylic acid] | 5.00 to 6.00 | 7.00 to 8.00
2 | CN(Cc1cccc(-n2ncc(C(=O)O)c2[C@@H]2C[C@H]2c2cn(C)nn2)c1)S(=O)(=O)c1ccc(-c2ccccc2)cc1 (relative stereo) [Example 39, 5-((trans)-2-(1-methyl-1H-1,2,3-triazol-4-yl)cyclo-propyl)-1-(3-((N-methyl-[1,1′-biphenyl]-4-ylsulfonamido)-methyl)phenyl)-1H-pyrazole-4-carboxylic acid] | 5.00 to 6.00 | 7.00 to 8.00
3 | CC(c1cccc(-n2ncc(C(=O)O)c2[C@@H]2C[C@H]2c2cn(C)nn2)c1)N1C[C@@H](C)Cc2ccc(C(F)(F)F)cc2S1(=O)=O (single isomer, unassigned) [Example 6, 1-(3-((R or S)-1-((S)-4-Methyl-1,1-dioxido-8-(trifluoromethyl)-4,5-dihydrobenzo[f][1,2]thiazepin-2(3H)-yl)ethyl)phenyl)-5-((1R,2R)-2-(1-methyl-1H-1,2,3-triazol-4-yl)cyclopropyl)-1H-pyrazole-4-carboxylic acid] | 6.00 to 7.00 | 8.00 to 9.00
4 | CC[C@@H]1CN(Cc2cccc(-n3ncc(C(=O)O)c3[C@@H]3C[C@H]3c3cn(C)nn3)c2)S(=O)(=O)c2ccccc2O1 [Example 3] | 6.00 to 7.00 | 8.00 to 9.00
5 | CC[C@H]1Cc2ccccc2S(=O)(=O)N(Cc2cccc(-n3ncc(C(=O)O)c3[C@@H]3C[C@H]3c3cn(C)nn3)c2)C1 [Example 4] | 6.00 to 7.00 | 8.00 to 9.00
6 | CC[C@@H]1Cc2ccccc2CN(Cc2cccc(-n3ncc(C(=O)O)c3[C@@H]3C[C@H]3c3cn(C)nn3)c2)C1 [Example 10] | 5.00 to 6.00 | 7.00 to 8.00
7 | CC[C@H]1Cc2ccccc2CN(Cc2cccc(-n3ncc(C(=O)O)c3[C@@H]3C[C@H]3c3cn(C)nn3)c2)C1 [Example 11] | 5.00 to 6.00 | 7.00 to 8.00
8 | CCC1c2ccccc2OC(C)(C)CN1Cc1cccc(-n2ncc(C(=O)O)c2[C@@H]2C[C@H]2c2cn(C)nn2)c1 (stereo partly shown) [Example 12] | 5.00 to 6.00 | 5.00 to 6.00
9 | C[C@H]1Cc2ccccc2S(=O)(=O)N(Cc2cccc(-n3ncc(C(=O)O)c3[C@@H]3C[C@H]3c3cn(C)nn3)c2)C1 [Example 15, 1-(3-(((S)-4-methyl-1,1-dioxido-4,5-dihydrobenzo[f][1,2]thiazepin-2(3H)-yl)methyl)phenyl)-5-((trans)-2-(1-methyl-1H-1,2,3-triazol-4-yl)cyclopropyl)-1H-pyrazole-4-carboxylic acid] | 5.00 to 6.00 | 7.00 to 8.00
10 | CC[C@H]1Cc2ccc(C(F)(F)F)cc2S(=O)(=O)N(Cc2cccc(-n3ncc(C(=O)O)c3[C@@H]3C[C@H]3c3cn(C)nn3)c2)C1 [Example 20, 1-(3-(((S)-4-ethyl-1,1-dioxido-8-(trifluoromethyl)-4,5-dihydrobenzo[f][1,2]thiazepin-2(3H)-yl)methyl)phenyl)-5-((1R,2R)-2-(1-methyl-1H-1,2,3-triazol-4-yl)cyclopropyl)-1H-pyrazole-4-carboxylic acid] | 8.00 to 9.00 | > 9.00
11 | CCCC[C@H]1Cc2ccc(C(F)(F)F)cc2S(=O)(=O)N(Cc2cccc(-n3ncc(C(=O)O)c3[C@@H]3C[C@H]3c3cn(C)nn3)c2)C1 [Example 21, 1-(3-(((S)-4-butyl-1,1-dioxido-8-(trifluoromethyl)-4,5-dihydrobenzo[f][1,2]thiazepin-2(3H)-yl)methyl)phenyl)-5-((1R,2R)-2-(1-methyl-1H-1,2,3-triazol-4-yl)cyclopropyl)-1H-pyrazole-4-carboxylic acid] | > 9.00 | > 9.00
12 | CC[C@H]1Cc2ccc(Br)cc2S(=O)(=O)N(Cc2cccc(-n3ncc(C(=O)O)c3[C@@H]3C[C@H]3c3cn(C)nn3)c2)C1 [Example 22, 1-(3-(((S)-8-bromo-4-ethyl-1,1-dioxido-4,5-dihydrobenzo[f][1,2]thiazepin-2(3H)-yl)methyl)phenyl)-5-((1R,2R)-2-(1-methyl-1H-1,2,3-triazol-4-yl)cyclopropyl)-1H-pyrazole-4-carboxylic acid] | 8.00 to 9.00 | > 9.00
13 | CC[C@@H]1CN(Cc2cc(-n3ncc(C(=O)O)c3C3C[C@H]3c3cn(C)nn3)ccc2C)S(=O)(=O)c2ccccc2O1 (stereo partly shown) [Example 25] | 5.00 to 6.00 | 8.00 to 9.00
14 | C[C@H]1Cc2ccc(C(F)(F)F)cc2S(=O)(=O)N([C@H]2CCc3c2cccc3-n2ncc(C(=O)O)c2[C@@H]2C[C@H]2c2cn(C)nn2)C1 [Example 26a, 1-((S)-1-((S)-4-Methyl-1,1-dioxido-8-(trifluoromethyl)-4,5-dihydrobenzo[f][1,2]thiazepin-2(3H)-yl)-2,3-dihydro-1H-inden-4-yl)-5-((1R,2R)-2-(1-methyl-1H-1,2,3-triazol-4-yl)cyclopropyl)-1H-pyrazole-4-carboxylic acid] | 6.00 to 7.00 | 7.00 to 8.00
15 | COc1ccccc1S(=O)(=O)N(C)C1CCc2ccc(-n3ncc(C(=O)O)c3[C@@H]3C[C@H]3c3cn(C)nn3)cc21 (stereo partly drawn) [Example 27, 1-(3-(2-methoxy-N-methylphenylsulfonamido)-2,3-dihydro-1H-inden-5-yl)-5-((1R,2R)-2-(1-methyl-1H-1,2,3-triazol-4-yl)cyclopropyl)-1H-pyrazole-4-carboxylic acid] | 6.00 to 7.00 | 5.00 to 6.00
16 | CC[C@@H]1CN(Cc2cc(-n3ncc(C(=O)O)c3[C@@H]3C[C@H]3c3cn(C)nn3)ccc2C)Cc2ccccc2O1 [Example 28] | 6.00 to 7.00 | 6.00 to 7.00
17 | CC[C@@H]1CN(Cc2cccc(-n3ncc(C(=O)O)c3[C@@H]3C[C@H]3c3cn(CC(F)(F)F)nn3)c2)S(=O)(=O)c2ccccc2O1 [Example 29] | 6.00 to 7.00 | 8.00 to 9.00
18 | C[C@H]1Cc2cc(C(F)(F)F)ccc2S(=O)(=O)N(Cc2cccc(-n3ncc(C(=O)O)c3[C@@H]3C[C@H]3c3cnn(C)c3)c2)C1 [Example 30, 1-(3-(((S)-4-Methyl-1,1-dioxido-7-(trifluoromethyl)-4,5-dihydrobenzo[f][1,2]thiazepin-2(3H)-yl)methyl)phenyl)-5-(trans-2-(1-methyl-1H-pyrazol-4-yl)cyclopropyl)-1H-pyrazole-4-carboxylic acid] | 5.00 to 6.00 | 7.00 to 8.00
19 | CC[C@@H]1CN(Cc2cccc(-n3ncc(C(=O)O)c3[C@@H]3C[C@H]3c3cnn(C)c3)c2)S(=O)(=O)c2ccccc2O1 [Example 31, 1-(3-(((R)-4-ethyl-1,1-dioxido-3,4-dihydro-2H-benzo[b][1,4,5]oxathiazepin-2-yl)methyl)-phenyl)-5-(trans-2-(1-methyl-1H-pyrazol-4-yl)cyclopropyl)-1H-pyrazole-4-carboxylic acid] | 5.00 to 6.00 | 6.00 to 7.00
20 | C[C@H]1Cc2ccccc2S(=O)(=O)N(Cc2cccc(-n3ncc(C(=O)O)c3[C@@H]3C[C@H]3c3cnn(C)c3)c2)C1 [Example 32, 1-(3-(((S)-4-methyl-1,1-dioxido-4,5-dihydrobenzo[f][1,2]thiazepin-2(3H)-yl)methyl)-phenyl)-5-(trans-2-(1-methyl-1H-pyrazol-4-yl)cyclopropyl)-1H-pyrazole-4-carboxylic acid] | 5.00 to 6.00 | 6.00 to 7.00
